Earlier results as cited in patent US20190125685A1, “COMPOSITE CAPSULE PREPARATION CONTAINING TADALAFIL AND TAMSULOSIN AND HAVING IMPROVED STABILITY AND ELUTION RATE” (HANMI PHARM. CO., LTD., priority 2016, published 2019).

Conditions: in vivo

Half-life relative to that of sildenafil or vardenafil: ≥ 3 times
Structure (SMILES): CN1CC(=O)N2[C@H](c3ccc4c(c3)OCO4)c3[nH]c4ccccc4c3C[C@@H]2C1=O [Tadalafil]
